# Literature values as cited in patent US10934405B2, “Synthetic polymer film whose surface has microbicidal activity, plastic product which includes synthetic polymer film, sterilization method with use of surface of synthetic polymer film, photocurable resin composition, and manufacturing method of synthetic polymer film” (Sharp Kabushiki Kaisha, priority 2018, dated 2021).
# Details: for Water Solubility: YES/NO, TABLE 1A and 1B
Molecule,Water Solubility,Water Solubility (symbol) (TABLE 6A and 6B)
polyethylene glycol (200) diacrylate [Example M282],YES,–
Nc1nc2ncc(CNc3ccc(C(=O)N[C@@H](CCC(=O)O)C(=O)O)cc3)nc2c(=O)[nH]1 [folic acid],–,◯
polyethylene glycol (400) diacrylate [Example M280],YES,–
"C=COCCOCCOC(=O)C=C [VEEA, 2-(2-vinyloxyethoxy)ethyl acrylate]",YES,–
